According to US20050004171A1, “Novel substituted benzimidazole dosage forms and method of using same” (priority 1996, published 2005):
“And” between values parts separate entries of the source, which are not always exact repeats. Equal values may be shown once. “Also recorded” adds a separate entry of the source. Read-outs that look alike come from different tables or passages of the source.

Columns and labels:
[1] = cited from earlier work; for pH: amino acid; for Solubility: at 25° C.
[2] = cited from earlier work; for pH: pH is altered by concentration and temperature; for Solubility: solubility is altered by temperature
[3] = Calculation of Essential pH and Stability Range Factor (SRF); assay type: physicochemical; settings: calculated from pKa; read-out: Stability Range Factor (SRF), pH range (pKa + 0.7) to 10.9
Procedure: A proton pump inhibitor dose within its calculated pHE range is designed to ensure sufficient proton pump inhibitor protection from acid degradation such that delivery to and action upon proton pumps occur. In one desirable embodiment, the pHE is the sum of the pKa of a given proton pump inhibitor plus about 0.7.
SRF is calculated based on the desirable shelf-life (or a dwell time), the environmental pH and the amount of acid expected to be encountered, along with a knowledge of the time of exposure expected after the drug is administered and before the drug reaches the blood (i.e., the dwell time).
The upper limit of the SRF is a function of the tolerability of the gastrointestinal mucosa to alkaline substances, which is determined by the Formulation pH and the concentration of alkaline material presented. […] It is acknowledged that the amount of buffer is an important aspect of the tissue destructive potential of an alkaline substance.
Examples of pHE calculations with SRF for specific proton pump inhibiting agents are as follows:
pHE of proton pump inhibitor=pKa of proton pump inhibitor+0.7.

[4] = acidic stomach / gastric environment (pH of 1.2 where stated), upon complete dissolution; cited from earlier work
[5] = cited from earlier work
gastric pH [6] = assay: Example IX: gastric pH of nasogastric aspirate (pH paper) in mechanically ventilated critically ill patients; assay type: in vivo, human; settings: mean ± standard deviation where given
Procedure: Each dose was administered through the nasogastric tube.
Gastric pH was measured immediately after aspirating gastric contents through the nasogastric tube. pH paper (pHydrion improved pH papers, Microessential Laboratory, Brooklyn, N.Y.) was used to measure gastric aspirate pH. The pH range of the test strips was 1 to 11, in increments of one pH unit. Gastric pH was measured before the initiation of omeprazole solution therapy, immediately before each dose, and every four hours between doses.

clinical [7] = settings: human, plasma, 40 mg
clinical [8] = settings: human, plasma, oral, 40 mg
gastric pH [9] = assay: Example XIV: continuous gastric pH monitoring (Zinetics probe) after omeprazole suspension; settings: from 1 h after administration for the entire 24-h study period; both routes
[10] = Example XV: omeprazole concentration vs time after single dose SOS in patients at risk for SRMD (HPLC); settings: single dose SOS 40 mg
[11] = test system: stress-related mucosal bleeding; assay: Example IX: clinically significant stress-related mucosal bleeding, mortality, pneumonia and adverse events in mechanically ventilated critically ill patients

Row | Compound | pH [1] | Solubility [1] | pH [2] | also measured
1 | C[C@H](N)C(=O)O [Alanine] | 6 | 16.65 g/100 g H2O | – | –
2 | N=C(N)NCCC[C@H](N)C(=O)O [Arginine] | 11.15 | – | – | –
3 | NC(=O)C[C@H](N)C(=O)O [Asparagine] | 5.41 | 3.53 g/100 g H2O | – | –
4 | N[C@@H](CC(=O)O)C(=O)O [Aspartic Acid] | 2.77 | – | – | –
5 | O=C([O-])CC(O)(CC(=O)[O-])C(=O)[O-].O=C([O-])CC(O)(CC(=O)[O-])C(=O)[O-].[Ca+2].[Ca+2].[Ca+2] [Calcium citrate] | – | – | 6.8 | –
6 | CC(O)C(=O)[O-].CC(O)C(=O)[O-].[Ca+2] (centres unmarked) [Calcium lactate] | – | – | 7 | –
7 | N[C@@H](CS)C(=O)O [Cysteine] | 5.02 | Very | – | –
8 | O=P([O-])([O-])O.[Na+].[Na+] [Dibasic sodium phosphate] | – | – | 8.6-9.3 | –
9 | N[C@@H](CCC(=O)O)C(=O)O [Glutamic Acid] | 3.22 | – | – | –
10 | NC(=O)CC[C@H](N)C(=O)O [Glutamine] | – | 2.5 g/100 g H2O | – | –
11 | NCC(=O)O [Glycine] | 5.97 | – | – | –
12 | N[C@@H](Cc1c[nH]cn1)C(=O)O [Histidine] | 7.47 | 4.19 g/100 g H2O | – | –
13 | CC[C@H](C)[C@H](N)C(=O)O [Isoleucine] | 5.94 | 4.117 g/100 g H2O | – | –
14 | Cc1c(OCC(F)(F)F)ccnc1C[S+]([O-])c1nc2ccccc2[nH]1 (centres unmarked) [Lansoprazole, lansoprazole] | – | – | – | Stability Range Factor (pH range) [3]: 4.8 to 10.9; time in which drug could undergo 50% degradation [4]: 2 min; Solubility in water [5]: very slightly; pKa [5]: Lansoprazole has a pKa of 4.1; thus, the Essential pH = 4.1 + 0.7 ≧ 4.8; Solubility in water ([5]; listed as Lansoprazole base): very slightly soluble in water
15 | CC(C)C[C@H](N)C(=O)O [Leucine] | – | 2.426 g/100 g H2O | – | –
16 | NCCCC[C@H](N)C(=O)O [Lysine] | 9.59 | Very | – | –
17 | CC(O)C(=O)[O-].CC(O)C(=O)[O-].[Mg+2] (centres unmarked) [Magnesium lactate] | – | – | 5.5-7.5 | –
18 | [O]=[Mg] [Magnesium oxide] | – | – | 9.5-10.5 | Solubility [2]: 0.62 mg/100 mL
19 | CSCC[C@H](N)C(=O)O [Methionine] | 5.74 | 3.381 g/100 g H2O | – | –
20 | COc1ccc2[nH]c([S+]([O-])Cc3ncc(C)c(OC)c3C)nc2c1 (centres unmarked) [Omeprazole] | – | – | – | gastric pH four hours after omeprazole was first administered (mean) (gastric pH [6]; 40 mg omeprazole solution per ng tube): 7.1 and 7.1±1.1; lowest gastric pH after starting omeprazole (mean) (gastric pH [6]): 5.6 and 5.6±1.3; mean gastric pH after starting omeprazole (mean) (gastric pH [6]): 6.8 and 6.8±0.6; Stability Range Factor (pH range) [3]: 4.6 to 10.9; time in which drug could undergo 50% degradation [4]: less than 3 minutes; Solubility in water [5]: slightly soluble; pKa [5]: Omeprazole has a pKa of 3.9; thus, the Essential pH = 3.9 + 0.7 ≧ 4.6; Solubility in water ([5]; listed as Omeprazole base): only slightly soluble in water; concentration at 3 min (clinical [7]): 27.5 ng/mL; concentration at 5 min (clinical [7]): 73.5 ng/mL; concentration at 8 h (clinical [7]): 232 ng/mL; concentration at 75 min (clinical [7]; oral): 610 ng/mL; concentration at 0 h (clinical [8]): 0 ng/mL; mean intragastric pH values (gastric pH [9]): > 4; absorption as measured by Area Under the Curve (AUC) compared to enteric-coated form [10]: did not appear to be significantly decreased; adverse event or drug interaction attributable to omeprazole ([11]; high-risk population): No patient; also recorded: No adverse events or drug interaction; incidence of pneumonia ([11]; nine of 75 patients): twelve

Row | Compound | pH [1] | Solubility [1] | pH [2] | also measured
21 | COc1ccnc(C[S+]([O-])c2nc3ccc(OC(F)F)cc3[nH]2)c1OC (centres unmarked) [Pantoprazole sodium] | – | – | – | time in which drug could undergo 50% degradation [4]: less than 5 minutes; Solubility in water [5]: very soluble; pKa [5]: 3; Solubility in water ([5]; listed as pantoprazole sodium): very soluble in water
22 | N[C@@H](Cc1ccccc1)C(=O)O [Phenylalanine] | 5.48 | 2.965 g/100 g H2O | – | –
23 | O=C(O)[C@@H]1CCCN1 [Proline] | 6.30 | – | – | –
24 | COCCCOc1ccnc(C[S+]([O-])c2nc3ccccc3[nH]2)c1C (centres unmarked) [Rabeprazole sodium] | – | – | – | time in which drug could undergo 50% degradation [4]: less than 1.5 minutes; Solubility in water [5]: very soluble in water; pKa [5]: 4.9
25 | N[C@@H](CO)C(=O)O [Serine] | 5.68 | – | – | –
26 | O=C([O-])CC(O)(CC(=O)[O-])C(=O)[O-].[Na+].[Na+].[Na+] [Sodium citrate] | – | – | 5 | –
27 | O=C([O-])[C@H](O)[C@@H](O)[C@H](O)[C@H](O)CO.[Na+] [Sodium gluconate] | – | – | 6-8 | –
28 | CC(O)C(=O)[O-].[Na+] (centres unmarked) [Sodium lactate] | – | – | 7 | –
29 | O=P([O-])([O-])[O-].[Na+].[Na+].[Na+] [Sodium phosphate (tribasic)] | – | – | 10.7-12.1 | –
30 | O=P(O)(O)OP(=O)(O)OP(=O)(O)O [Sodium tripolyphosphate] | – | – | 9.7-10 | Solubility [2]: 6 gm/100 mL
31 | C[C@@H](O)[C@H](N)C(=O)O [Threonine] | 5.64 | – | – | –
32 | N[C@@H](Cc1c[nH]c2ccccc12)C(=O)O [Tryptophan] | 5.89 | 1.136 g/100 g H2O | – | –
33 | N[C@@H](Cc1ccc(O)cc1)C(=O)O [Tyrosine] | 5.66 | – | – | –
34 | CC(C)[C@H](N)C(=O)O [Valine] | 5.96 | 8.85 g/100 g H2O | – | –
35 | COc1ccc2nc([S@@+]([O-])Cc3ncc(C)c(OC)c3C)[nH]c2c1 [esomeprazole] | – | – | – | pKa [5]: Essential pH (esomeprazole pKa = 3.9 + 0.7 ≧ 4.6)
36 | COc1ccnc(C[S+]([O-])c2nc3ccc(OC(F)F)cc3[nH]2)c1OC (centres unmarked) [pantoprazole] | – | – | – | Stability Range Factor (pH range) [3]: 3.7 to 10.9
37 | COCCCOc1ccnc(C[S+]([O-])c2nc3ccccc3[nH]2)c1C (centres unmarked) [rabeprazole] | – | – | – | Stability Range Factor (pH range) [3]: 5.6 to 10.9
38 | Calcium gluconate | – | – | 7.4 | –
39 | Calcium glycerophosphate | – | – | 7 | –
40 | Magnesium gluconate | – | – | 7.3 | –
